# A melting point compilation (Tetko et al.; mined from patent text by program, amines drawn as free bases though some values may be those of a salt)
row,Compound,melting point [°C]
1,CC1(C)NC(=O)c2cc(OCCBr)ccc2O1,190 to 195
2,CCCOc1cc(C#N)ccc1C(C)=O,99.5 to 100
3,CC(=O)c1cc2c(c(C(=O)O)c1)NCCC2,229
4,CC(C)CNC(=O)N(CCCl)N=O,51
5,CCOCCOc1c(C)cc(C#CC2(O)CN3CCC2CC3)cc1C (configuration not stated),113 to 115
6,O=C(CCCCCSc1ccc(Cl)cc1)NO,83 to 85
7,COc1cc([N+](=O)[O-])c(NC(C)=O)cc1OC(F)F,116 to 117
8,CN1CCN(c2ccc([N+](=O)[O-])cc2F)CC1,68 to 70
9,CN(C(=O)CCl)C1(c2ccccc2)Cc2ccccc2C1,134 to 137
10,Nc1nnc(-c2ccc(CN3CCCCCC3)s2)s1,156 to 157
11,COC(=O)C1Cc2c(n(C)c3ccccc23)CN1C(=S)SC (configuration not stated),170 to 171
12,COc1ccc(C2C(C(=O)/C=C/c3ccc(OC)c(OC)c3)C(=O)CC(c3ccc(OC)c(OC)c3)C2[N+](=O)[O-])cc1 (configuration not stated),158 to 160
13,CN1C(=O)C(NC(=O)Nc2ccccc2[N+](=O)[O-])N=C(c2ccccc2)c2ccccc21 (configuration not stated),260 to 261
14,O=C1NC(=O)C(=Cc2ccc(N3CCC4(CC3)OCCO4)c(Br)c2)S1,109 to 111
15,CCc1ccc(CC2N=C(c3ccc(F)cc3)c3cc(Cl)ccc3N(C)C2=O)cc1CC (configuration not stated),54 to 56
16,C[C@H](NC(=O)C1(C)Sc2ccccc2NC1=O)C(=O)N[C@H](CCC(=O)O)C(N)=O (some centres not stated),124 to 125
17,CCc1cc(C#N)c(Cl)nc1C,63 to 64
18,CN(C(=O)c1c(Cl)cccc1Cl)c1cc(-c2ccc(Cl)cc2)on1,175 to 178
19,CCC(CC)N1CCN(C(=O)Oc2ccc(OC)cc2)CC1,52 to 54
20,Clc1ccc2c(c1)CCC(N1CCCC1)=C2,117 to 118
21,COc1ccc2nc(COc3ccc(CC(SC)C(N)=O)cc3)n(C)c2c1 (configuration not stated),188 to 190
22,N#CCC1COc2ccccc2O1 (configuration not stated),66 to 67
23,Oc1ccc(-c2ccc3c(-c4ccccc4)c(O)ccc3c2)cc1,142 to 146
24,Cc1cc(C(=O)CCl)c(N)cc1Cl,129 to 130
25,CCOc1cc(C(C)C)ccc1C1CCN(CCCCNC(=O)c2ccc(NC(=O)c3ccc(Cl)cc3)cc2)CC1,242
26,CN1CCc2nc3ccc(Cl)cc3c(Cl)c2C1,88 to 89

row,Compound,melting point [°C]
1,COc1ccc(N2CCN(CCC3OCCc4cc(C#N)ccc43)CC2)cc1 (configuration not stated),86 to 88
2,COc1ccccc1C(CCNC(C)(C)C)c1cc(Cl)ccc1OC (configuration not stated),> 260
3,CCC1(N)CCN(c2c(F)c(N)c3c(=O)c(C(=O)O)cn(C4CC4)c3c2F)C1 (configuration not stated),205 to 206
4,O=C(O)c1cccc(CN2CCC(c3cn(Cc4cccs4)c4ccccc34)CC2)c1,228 to 229
5,O=C(NCCCCCCCCn1ccnc1)c1ccc(Cl)nc1,79 to 81
6,COc1cc(COc2cc(/C=C/C(=O)O)n(-c3ccccc3)n2)ccc1OCc1nc(-c2ccco2)oc1C,191 to 192
7,CC(C)c1nccn1-c1nc(Cl)nc2nc[nH]c12,268
8,O=C(c1ccccc1)N1CCN2c3ccccc3Cn3cccc3C2C1 (configuration not stated),137 to 139
9,CC(C)(c1ccc(Oc2ccc([N+](=O)[O-])cc2C(F)(F)F)cc1)c1cccc(C(C)(C)c2ccc(Oc3ccc([N+](=O)[O-])cc3C(F)(F)F)cc2)c1,127 to 128
10,Cc1ccc(-c2nc(-c3ccc(C)cc3C)nc(-c3ccc(OCCCCCCO)cc3O)n2)c(C)c1,117 to 118
11,CCCCNc1nc(-c2cc(OC)c(OC)c(OC)c2)nc2sc(C#N)c(C)c12,192 to 194
12,CCOCCC(=O)OCC(=O)C1(O)CCC2C3CC(C)C4=CC(=O)C=CC4(C)C3C(O)CC21C (configuration not stated),186
13,C[C@@H](CO)NC(=S)[C@@H](CC(=O)OC(C)(C)C)NC(=O)OC(C)(C)C,70 to 72
14,CNC(=O)c1cc2c(OC[C@@H](O)CN3CCC(c4ccc5ccccc5c4)CC3)cccc2n1C,180 to 183
15,CN1CCc2cc(Cl)c(O)cc2C1C1(c2ccc(Cl)cc2)CCC1 (configuration not stated),168 to 171
16,CON=C(C)c1cc(C[C@H](NC(=O)c2c(Cl)cccc2Cl)C(=O)O)ccc1-c1ccccc1OC,107
17,OCC(O)CN1CCN(c2nccs2)CC1 (configuration not stated),138 to 139
18,NCC1(O)C2CC3CC(C2)CC1C3 (configuration not stated),154 to 156
19,O=C(COc1ccc(-c2c(Cl)c(CN3C(=O)CCC3=O)nc3sc4c(c23)CCS(=O)C4)cc1)NCc1ccccc1 (configuration not stated),220 to 221
20,Clc1ccc2nc(N3CCN(c4c(Cl)cncc4Cl)CC3)[nH]c2c1,258 to 260
21,C[C@H]1C[C@H](C(=O)O)c2cc(Cl)c(Cl)cc2O1 (relative stereo),108 to 110
22,COc1ccncc1NC(=O)c1c[nH]c2c1C(=O)CCC2,209 to 210
23,C=C(C)Cn1c(=O)n(C)c(=O)c2c[nH]nc21,232 to 233
24,Cc1cc2c(cc1Sc1ccc(C(=O)O)c(Cl)c1)C(C)(C)CCC2(C)C,202 to 205
25,CC1(C)OCc2cc(C(=O)CBr)ccc2O1,52 to 54

# More lines, now with the values ahead:
row,melting point [°C],Compound
1,272 to 274,O=C1c2ccc3cccnc3c2N=CC1S(=O)(=O)CC(F)(F)F (configuration not stated)
2,181 to 182,CCOC(=O)c1cc2cc(C#N)ccc2[nH]1
3,60,Cc1cccc(CC(=O)c2ccnc(-c3ccc(OC(F)(F)F)cc3)c2)n1
4,148,CCCCC1=NC2(CCCC2)C(=O)N1Cc1ccc(-c2ccccc2S(=O)(=O)Nc2noc(C)c2C)c(COCC)c1
5,157 to 158,Cc1cccc(-c2csc(N3CCN(C(=O)Nc4cccnc4)CC3)n2)c1
6,145 to 150,CC1Cc2cc3c(cc2C(c2ccc([N+](=O)[O-])cc2)=NN1c1nccs1)OCO3 (configuration not stated)
7,247,OC1(c2cccc(Cl)c2)CCN(c2nc3ccc(C(F)(F)F)cc3[nH]2)CC1
8,170 to 172,CCc1ccc2ccc(N)nc2n1
9,101 to 103,CCCCS(=O)(=O)NCc1ccc(C(=O)CN2CCN(c3ccncc3)CC2)cc1
10,273 to 276,CCOC(=O)c1cc2c(cn1)[nH]c1cccc(C=O)c12
11,122,CCOC(=O)N1CCN(C2=Nc3ccccc3Oc3ccc(Cl)cc32)CC1
12,186 to 188,CC(C(=O)O)c1ccc2cc(O)ccc2c1 (configuration not stated)
13,110 to 111,COc1ccc(Cn2c(=O)c3ccccc3n(CCCCCCl)c2=O)cc1
14,95 to 100,COc1ccc2c(c1)NCC(c1ccccc1)O2 (configuration not stated)
15,125 to 127,Nc1c(CC(=O)O)cccc1Oc1ccc(Cl)c(Cl)c1
16,184 to 186,O=C(O)Cc1ccc(NC(=O)C(COc2ccc(Cl)cc2)NS(=O)(=O)c2ccc(F)cc2)cc1 (racemic)
17,63,O=C(c1cccs1)c1cnn2c(-c3cccc(-c4ccn(CCN5CCCC5)n4)c3)ccnc12
18,59 to 61,CC[Si](CC)(CC)c1cccc2c1oc1c([Si](CC)(CC)CC)cccc12
19,> 300,O=C1NCCc2cc(I)ccc21
20,70,O=C(O)CCc1cccc(C(=O)c2ccccc2)c1
21,174 to 175,OC(=S)c1ccc2cccnc2c1O
22,173 to 174,COC(=O)NC1=NC(c2cccc(C(F)(F)F)c2)CN1 (configuration not stated)
23,96 to 97,Cc1nn(-c2ccc(C(F)(F)F)cn2)cc1CCCOc1cccc(CC(=O)O)c1
24,75 to 76,C=CCNC(=O)N1CC(Oc2cccc(C(F)(F)F)c2)C1
25,118 to 119,Cc1cc(OC(=O)c2ccccc2)ccc1OCc1ccccc1
26,234 to 235,O=S(=O)(Nc1ncnc(Cl)c1-c1ccc(-c2ccccc2)cc1)c1ccc(Cl)cc1

row,melting point [°C],Compound
1,268 to 269,Cc1ccnc2nc(NS(=O)(=O)c3ccccc3Cl)nn12
2,170 to 172,CCOc1ccc(-c2noc3c(Cl)c(O)ccc23)c(F)c1
3,102 to 105,Cc1nnc(COc2cccc(NC(=O)N(C)C)c2)o1
4,136 to 137,Nc1ccc2c(c1)C(=O)CCO2
5,188 to 189,CCn1c2c(c3ccccc3c1=O)C(=O)c1ccccc1-2
6,157 to 160,Fc1ccccc1C1=NCc2cnc(Cl)nc2-c2ccc(Cl)cc21
7,188 to 189,CCCn1c(COCC)nc2c(N)nc3cc(OCc4ccccc4)ccc3c21
8,156 to 158,Clc1cnc2c(COCn3cncn3)c(Cl)ccc2c1
9,119 to 121,Cn1cc(-c2ccccc2)c(=O)c(-c2cccc(OC(F)(F)C(F)F)c2)c1
10,226 to 229,CC1=NNC(=O)N(N=Cc2cccnc2C)C1
11,223 to 224,O=C(Nc1cccc2cc(CBr)cnc12)c1c(Cl)cccc1Cl
12,227,O=c1ccc2cc(C(c3ccccc3)n3ccnc3)ccc2[nH]1 (configuration not stated)
13,207 to 209,O=S1(=O)N=CN(C2CC2)c2cccc(Cl)c21
14,285 to 290,Cc1ccc2c(O)c(CS(C)(=O)=O)cnc2c1
15,280,O=c1[nH]c2cc(C(F)(F)F)ccc2n(CCn2ncnn2)c1=O
16,155 to 156,Oc1cc2c(cc1O)-c1ccccc1C2
17,162 to 164,Fc1ccc(Cn2cnc3c(-c4ccco4)ncnc32)cc1
18,219 to 220,CC(C)n1c(C=O)c(-c2ccc(F)cc2)c(-c2ccccc2)c1C(=O)O
19,180 to 182,CC(C)(C)OC(=O)NCc1cccc2c1C(=O)N(C1CCC(=O)NC1=O)C2=O (configuration not stated)
20,169 to 172,O=[N+]([O-])c1c(Nc2ccc(O)cc2)ncnc1-c1ccc(C(F)(F)F)cc1F
21,147 to 149,N#Cc1cnn2c1N(C(=O)CN1CCN(C(=O)Nc3cccc(C(F)(F)F)c3)CC1)CC=C2c1cccc(C(F)(F)F)c1
22,153 to 155,CCCN(CCC)C(=O)Cn1c(-c2ccc(Br)cc2)nc2cccnc21
23,210 to 215,O=P(O)(O)CSc1nc2cc(Cl)c(C#Cc3ccccc3)cc2[nH]1
24,95 to 97,CCNC(=O)n1nc(Oc2ccc([N+](=O)[O-])c(C(F)(F)F)c2)cc1C
25,137 to 139,Nc1cccc(Oc2ccc(C(c3ccc(Oc4cccc(N)c4)cc3)(C(F)(F)F)C(F)(F)F)cc2)c1
